From patent publication US11066379B2 (THE TEXAS A&M UNIVERSITY SYSTEM, priority 2018, dated 2021)

Assays:
[1] = tested on: SHSY5Y cells; experiment: Neuroprotective effects summarised over all five assays (viability, TMRM, ROS, GSH, mPTP); assay type: cell-based, human; details: 0.001, 0.01 or 0.1 μM; H2O2 challenge
Procedure: As described previously, neuroprotective agents can mediate their effects through inhibition of CypD, an isoform of CypA. […] All assays were performed at the indicated concentrations (0.001, 0.01, or 0.1 μM) based on initial cytotoxicity determined with SHSY5Y cells (Table 1).

[2] = biological target: CypD (Homo sapiens, UniProt P30405); experiment: CypD enzyme inhibition assay (PPIase activity); assay type: biochemical; details: for IC50: CypD 1 nM; for selectivity for CypD over CypA: PPIase IC50 CypA vs CypD
Procedure: The inhibition of the peptidyl-prolyl cis-trans isomerase (PPIase) activity of compounds was determined by following the rate of hydrolysis of N-succinyl-Ala-Ala-Pro-Phe-pnitroanilide by chymotrypsin. CsA was used as positive control. The assay was performed as previously described (Yan, W., Qing, J., Mei, H., Nong, J., Huang, J., Zhu, J., Jiang, H., Liu, L., Zhang, L. and Li, J. Bioorg. Med. Chem. Lett., 2015, 25, 5682-5686) with small modifications. The assay buffer (20 mM Tris-HCl, 50 mM NaCl, pH 7.8), CypD (1 nM) and the compounds at concentrations ranging from 0.001 to 10 μM were pre-cooled at 4° C. for 1 h. After that time, chymotrypsin at 0.4 mg/mL in 1 mM HCl was added to each well. The reaction was initiated by the addition of the peptide (0.1 mg/mL in 500 mM LiCl in THF). The absorbance at 380 nm was monitored every 30 sec for 5 min with a spectrophotometer plate reader. The blank rates of hydrolysis (in absence of CypD) were subtracted from the rates in the presence of the enzyme. The half-maximal inhibitory concentration (IC50) was calculated by fitting the data with a log(inhibitor) vs. response model of GraphPad Prism 5.0 software. All experiments were performed four times.

[3] = tested on: SH-SY5Y cells; experiment: Intracellular ROS levels (carboxy-H2DCFDA) after H2O2; assay type: cell-based, human; details: 150 μM H2O2 co-treatment 6 h
Procedure: Intracellular levels of reactive oxygen species (ROS) were determined with carboxy-H2DCFDA (5-(and-6)-carboxy-2′,7′-dichlorodihydrofluorescein diacetate). This dye diffuses through the cellular membrane and is converted by cellular esterases to carboxy-H2DCFH (non-fluorescent). When carboxy-H2DCFH is oxidized by ROS, it becomes fluorescent (Halliwell, B. and Whiteman, M. Br. J. Pharmacol., 2004, 142, 231-255). Cells were seeded at a density of 2.5×10^5 cells/mL in 96-well plates and allowed to attach for 24 h. Following treatment with compounds at various concentrations (1 μM→1 nM) and 150 μM H2O2 for 6 h, SH-SY5Y cells were washed twice with serum-free culture medium. Then, carboxy-H2DCFDA 20 μM dissolved in serum-free culture medium was added to each well and the cells were incubated for 1 h at 37° C. After this incubation, the medium with the fluorescent dye was replaced with PBS and the plate was incubated for 30 min at 37° C. Fluorescence was read at 527 nm, with an excitation wavelength of 495 nm. All experiments were performed four times.

[4] = biological target: T1, CypA (Homo sapiens, UniProt P62937); experiment: CypA PPIase activity inhibition; assay type: biochemical; details: PPIase IC50 CypA vs CypD
T1 construct: Active human CypA full-length protein was from Abcam; purchased Abcam

[5] = Viability of human T lymphocytes (MTT assay, 48 h); assay type: cell-based; details: human; 0.1 μM, 48 hours; read-out: decrease in cell viability
Text: (§1) The MTT (3-[4,5-dimethylthiazol-2-yl]-2,5-diphenyltetrazoliumbromide) assay was used to determine the cytotoxicity of gracilin derivatives in T lymphocytes (Burton, J. D. Methods Mol. Med., 2005, 110, 69-78) and SH-SY5Y cells and the protective effect of these compounds against H2O2 insult in neuroblastoma cells as previously described (Leiros, M., Alonso, E., Sanchez, J. A., Rateb, M. E., Ebel, R., Houssen, W. E., Jaspars, M., Alfonso, A. and Botana, L. M. ACS Chem. Neurosci., 2014, S, 71-80). Human T lymphocytes were cultured in 24 well plates at the concentration of 2.5×10^6 cells/mL and exposed to different compound concentrations (0.01, 0.1, 1 and 10 μM) added to the culture medium. Human T cells were maintained in the presence of the pure compound at 37° C. in humidified 5% CO2/95% air atmosphere for 48 h.
(§2) Saponin was used as cellular death control and its absorbance was subtracted from the other data. After the incubation period with compounds, assay was performed. First cells were centrifuged (1500 rpm, 5 min, 4° C.). The pellets were resuspended in saline solution with MTT (250 μg/mL) and then incubated at 37° C. during 30 min. After washing off excess MTT twice with saline solution, cells were disaggregated with H2O and sonicated for 1 min and the absorbance of the colored formazan salt was measured at 595 nm in a spectrophotometer plate reader. All experiments were performed three times.

[6] = tested on: human T lymphocytes; experiment: Viability of human T lymphocytes (MTT assay, 48 h); assay type: cell-based; details: in words
Text: as §1, §2

CypD, sequence (P30405 30-207): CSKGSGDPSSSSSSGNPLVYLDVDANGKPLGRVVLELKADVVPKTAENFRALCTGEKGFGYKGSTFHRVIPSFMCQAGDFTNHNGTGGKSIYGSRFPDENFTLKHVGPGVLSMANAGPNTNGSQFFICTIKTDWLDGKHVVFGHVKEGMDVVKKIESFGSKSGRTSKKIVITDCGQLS
T1 sequence (P62937 whole entry): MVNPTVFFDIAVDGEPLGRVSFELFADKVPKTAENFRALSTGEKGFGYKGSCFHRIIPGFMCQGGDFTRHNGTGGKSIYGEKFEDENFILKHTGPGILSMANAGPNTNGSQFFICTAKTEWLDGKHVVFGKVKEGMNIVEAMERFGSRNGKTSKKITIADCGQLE

In the case of `CC(=O)O[C@H]1O[C@@H](OC(C)=O)[C@@H]2CC[C@](O)(C3(C)CCCC(C)(C)C3)C[C@H]12` (stereo partly drawn) [Compound 22, (1S,3R,3aS,5R,7aR)-5-hydroxy-5-(1,3,3-trimethylcyclohexyl)octahydroisobenzo-furan-1,3-diyl diacetate], the “neuroprotective / antioxidant effects based on all five assays” value [1] is reported as “displayed significant neuroprotective effects”, the IC50 [2] is reported as < 0.5 µM and the ROS levels [3] is reported as “diminishing ROS at two or three concentrations”. The “selectivity for CypA” value [4] was 4 fold.

For `CC(=O)O[C@@H]1OC[C@H]2C=C(C3(C)CCCCC3)CC[C@@H]12` [Compound 27a, (1S,3aS,7aR)-5-(1-methylcyclohexyl)-1,3,3a,6,7,7a-hexahydroisobenzofuran-1-yl acetate], the “neuroprotective / antioxidant effects based on all five assays” value [1] was “displayed significant neuroprotective effects”, the IC50 [2] was < 0.5 µM and the “selectivity for CypD over CypA” value [2] was “about 3 fold”. For the same compound, the “selectivity for CypD over CypA” value ([2]; listed as (−)-27a) was ~3 fold and the ROS levels [3] was “diminishing ROS at two or three concentrations”.

For `CC(=O)O[C@H]1OC[C@@H]2C=C([C@@]3(C)CCCC(C)(C)C3)CC[C@H]12` [Compound 29a, (1R,3aR,7aS)-5-(1,3,3-trimethylcyclohexyl)-1,3,3a,6,7,7a-hexahydroisobenzofuran-1-yl acetate], the “neuroprotective / antioxidant effects based on all five assays” value [1] was “displayed significant neuroprotective effects”, the IC50 [2] was < 0.5 µM and the cytotoxicity at 48 h, 0.1 μM [5] was 15 to 25%. The “impact on T-cell viability” value [6] was “relatively non-toxic”.
